Seven molecules from patent US5356781A, “Zymogen activation peptides (ZAP) in the diagnosis of disease” (Bioscience International, Inc., priority 1986, dated 1994) can be followed below.

Where no end group is shown, it is not given here.

A word on the IC50: it is the concentration that gives 50% inhibition. Broadly, the half-life is the time in which the quantity being followed falls by half. Low values mean fast loss, high ones slow loss.

Series [1] deals with affinity-purified Ca^2+ -dependent antibodies present in sera from rabbit 1 (anti-D4 K). The experiment in a line: Solution phase competitive immunoradiometric assay: competition of binding to 125I-YD4 K, precipitation with second antibody. The following applies: Ca2+-dependent antibodies from rabbit 1; FIG. 3; read-out: IC50, displacement of binding to 125I-YD4 K. On the procedure:
The relative affinities of affinity-purified Ca^2+ -dependent antibodies present in sera from rabbit 1 for various peptides was examined by determining competition of binding to ^125 I-YD4 K, measured by precipitation with a second antibody, donkey anti-rabbit. […] Some binding to Asp2 Lys was seen.
100 μl of a 1:250 dilution of anti-D4 K antiserum or a dilution of affinity-purified anti-D4 K antibodies in 50mM Tris-Hcl, 20mM CaCl2, 0.1% (w/v) BSA, pH 7.4 (RIA buffer) were added to 100 μl of ^125 I-YD4 K, (10,000 cpm) in RIA buffer containing 0.2% (v/v) normal rabbit serum in polystyrene tubes. Then 100 μl of solutions containing various concentrations of standard peptides or unknown plasma samples diluted in RIA-buffer were added, followed by 50 μl of donkey anti-rabbit Ig serum (Wellcome Biotechnology) diluted 1:10 with RIA-buffer with 0.2% normal rabbit serum. The mixtures were incubated 18 hours at 4° C., then the tubes were centrifuged at 3,000 rpm for 45 minutes at 4° C., and the supernatants aspirated. The radioactivity in the precipitates was determined in an LKB rack-gamma counter.

Series [2] is classed as in vitro ADME. On the procedure: The stability of APFD4 K and D4 K were examined by incubation with activated pancreatic juice, and the chemical identity of the product examined by high-voltage paper electrophoresis at pH 6.5. […] In three separate experiments, duplicate 65 to 75 mg portions of fresh dog pancreas were placed in modified Bank's medium and incubated in the presence or absence of 100 units enterokinase (Sigma Chem. Co. […]) at 37° C. for 4 hours and 22° C. for a further 20 hours. Duplicate 100 ul samples of culture medium supernatant were taken at intervals, diluted 2:1 with RIA buffer, boiled for 10 minutes and centrifuged. Supernatants were then stored at -20° C. prior to assay for D4 K peptides.

Series [3] is described as follows: Incubation in human serum (immunoreactivity; Sephadex G-100 chromatography). The class given is in vitro ADME. Here is the method:
Immunoreactive D4 K was unaltered by incubation with undenatured human serum at 37° C. for 6 hours and 4° C. for 48 hours.

The nature of a further series: in vivo. Particulars: rat, iv.
In another series the target is anti-D4 K antibodies. The experiment in a line: Displacement of 125I-YD4 K binding by trypsinogen with and without enteropeptidase activation. The arrangement: species or system rabbit. Here is the method: Of great importance to the general principle of the PAP assay of which this is an example, and for the application of these specific anti-D4 K antibodies to the diagnosis of pancreatic disease was the finding that anti-D4 K antibodies were […] on the peptide, and were not displaced by trypsinogen (where the peptide is C-terminally bound to the protein) in concentrations of the zymogen of up to 100 μg/ml. Upon incubation of trypsinogen with enteropeptidase, however, released D4 K-containing activation peptides actively displaced the binding of synthetic ^125 I-YD4 K giving 50% displacement after activation of a 2 μg/ml solution of trypsinogen (FIG. 4). Trypsinogen in native dog pancreatic juice was also activated by enteropeptidase (FIG. 4) releasing immunoreactive D4 K peptides, giving 50% displacement in competitive solution-phase immunoassay after activation of 10^-8 L pancreatic juice. The novel D4 K-specific antibodies described here therefore also provide a new sensitive assay for enteropeptidase and trypsinogen applicable to fluids with endogenous trypsin inhibitors. […]
A general note: Displacement assays read how much labelled ligand stays bound in the presence of the test substance.

Experimental for in vivo: To determine the fate of circulating peptide, D4 K (0.28 ml, 1 mg/ml) was injected into the left femoral vein of rats under phenobarbital anaesthesia. Blood samples (0.5 ml) were collected every 15 minutes for 2 hours, and subjected to immunoassay.

Take `N[C@@H](CC(=O)O)C(=O)O` [Asp, Aspartic Acid]: the concentration for half-maximal inhibition (IC50) in series [1] was > 100 µM.
In the case of `NCCCC[C@H](N)C(=O)O` [Lys, Lysine], in series [1], the half-inhibitory concentration (IC50) was > 100 µM.
As to “APFDDDDK [APFD4 K, Ala-Pro-Phe-Asp-Asp-Asp-Asp-Lys]”, the “stability in activated pancreatic juice (identity of product)” value in series [2] is “rapidly converted to free Ala, Pro and Phe and D4 K”.
Consider poly-Asp, for which the IC50 in series [1] was > 100 µM.
On to YDDDDK [YD4 K], for which the “complexing with a serum component” value in series [3] (Sephadex G-100 chromatography after incubation in human serum) is “did not complex with a serum component”.
As to DDDDK [D4 K, Asp-Asp-Asp-Asp-Lys], the “stability of immunoreactive peptide in undenatured human serum” value in series [3] (4° C. for 48 hours) and in series [3] (37° C. for 6 hours) was “unaltered” throughout. Further, in the series “in vivo”, the half-life was ~15 min.

B1: trypsinogen: zymogen in which the D4 K peptide is C-terminally bound to the protein (protein, UniProt P00760 18-246, looked up)
pro-form: VDDDDKIVGGYTCGANTVPYQVSLNSGYHFCGGSLINSQWVVSAAHCYKSGIQVRLGEDNINVVEGNEQFISASKSIVHPSYNSNTLNNDIMLIKLKSAASLNSRVASISLPTSCASAGTQCLISGWGNTKSSGTSYPDVLKCLKAPILSDSSCKSAYPGQITSNMFCAGYLEGGKDSCQGDSGGPVVCSGKLQGIVSWGSGCAQKNKPGVYTKVCNYVSWIKQTIASN
modifications: pro-form
As for B1, on anti-D4 K antibodies (after incubation of trypsinogen with enteropeptidase, FIG. 4), the “concentration of solution giving 50% displacement of 125I-YD4 K” value turned out to be 2 µg/mL. In the series on anti-D4 K antibodies (trypsinogen without enteropeptidase activation), the “concentration up to which antibodies were not displaced” value was > 100 µg/mL.
